Entries after “also recorded” stand apart in the source; their conditions may differ.
Columns and labels:
[1] = Amount of solvent system needed to dissolve 0.2 g of bleach catalyst (effect of surfactant on solubility); type: physicochemical
Method: The amount of solvent needed to dilute 0.2 g of bleach catalyst 1 was determined. Subsequently solvent systems containing a solvent and 0.06 wt. % of surfactant, based on the total weight of the solvent system, were prepared, and the amount of solvent system needed to dilute 0.2 g of bleach catalyst 1 was determined. It will be recognised that for the preparation of a supported catalyst on a carrier it is necessary to dilute the bleach catalyst in a solvent system.
The results of the amount of solvent system without surfactant and solvent system with surfactant needed to dissolve 0.2 g of bleach catalyst 1 are shown in Table 5.

[2] = Stability of bleach catalysts: UV-vis absorbance of solutions at pH 11; type: physicochemical
Method: The stability of bleach catalysts having the structures shown in Table 2 was determined by preparing solutions of these compounds and measuring their UV-vis absorbance.
A solution of each compound was prepared by dissolving each compound in a mixture of 50 wt. % water and 50 wt. % acetone. The concentration of each solution was 0.28 mM.
The pH of each solution was set to 11 by adding a diluted solution of sodium hydroxide.
The UV-vis absorption of each solution was measured just after preparing the samples (t=0), then at 2 h and 48 h using a UV-Vis Evolution 220 FC-1135 spectrophotometer.

[3] = t = 0, 0.28 mM in 50 wt. % water / 50 wt. % acetone
[4] = t = 48 h, 0.28 mM in 50 wt. % water / 50 wt. % acetone

Compound	Amount of solvent system needed to dissolve 0.2 g of bleach catalyst ([1]; Acetone) [g]	Amount of solvent system needed to dissolve 0.2 g of bleach catalyst ([1]; Acetone with 0.06 wt. % surfactant (ROKAnol L7A)) [g]	Amount of solvent system needed to dissolve 0.2 g of bleach catalyst ([1]; Ethyl acetate) [g]	Amount of solvent system needed to dissolve 0.2 g of bleach catalyst ([1]; Ethyl acetate with 0.06 wt. % surfactant (ROKAnol L7A)) [g]	Amount of solvent system needed to dissolve 0.2 g of bleach catalyst ([1]; Tetrahydrofuran) [g]	Amount of solvent system needed to dissolve 0.2 g of bleach catalyst ([1]; Tetrahydrofuran with 0.06 wt. % surfactant (ROKAnol L7A)) [g]	Absorption at 445 nm [2, 3]	Appearance [2, 3]	Absorption at 445 nm [2, 4]	Appearance [2, 4]
O=S1(=O)N=C(c2ccccn2)c2ccccc21 [Bleach catalyst 1, 3-(33yridine-2-yl)-1,2-benzisothiazole-1,1-dioxide]	5	2.5	13	11	3.5	2.75	<0.05	Transparent	<0.05	Transparent
O=S1(=O)N=C(c2cccnc2)c2ccccc21 [Bleach catalyst 2, 3-(pyridine-3-yl)-1,2-benzisothiazole-1,1-dioxide]	–	–	–	–	–	–	<0.05	Transparent	<0.05	Transparent
CC1=NS(=O)(=O)c2ccccc21 [Bleach catalyst A, 3-methyl-1,2-benzisothiazole-1,1-dioxide]	–	–	–	–	–	–	<0.05	Transparent	0.37	coloured/yellow; also recorded: Yellowing
O=S1(=O)N=C(c2ccccc2)c2ccccc21 [Bleach catalyst B, 3-phenyl-1,2-benzisothiazole-1,1-dioxide]	–	–	–	–	–	–	<0.05	Transparent	<0.05	Transparent
CC(C)(C)C1=NS(=O)(=O)c2ccccc21 [Bleach catalyst C, 3-tert-butyl-1,2-benzisothiazole-1,1-dioxide]	–	–	–	–	–	–	<0.05	Transparent	<0.05	Transparent

— US20260275249A1, “Bleach Catalyst With Improved Performance, Granule Comprising The Bleach Catalyst, And Composition Comprising Said Catalyst Or Said Granule” (Reckitt Benckiser Vanish B.V., priority 2023, published 2026)
